The subject of test [1] is TPA-induced epidermal hyperplasia. Briefly: Inhibition of TPA-induced epidermal hyperplasia (epidermal thickness) on back skin of mice. Type of test: in vivo, BALB/c mice. The settings on record: for Relative potency: hydrocortisone acetate = 1.0; for Potency for inhibition of TPA-induced epidermal hyperplasia (in words): ranking in text; for Emax: read-out: Emax (% inhibition). On the procedure:
(§1) The mice were housed in stainless steel cages, 6 mice per cage under normal laboratory conditions (room temperature at about 22° C.) at least 7 days before the experiments for acclimatization. Food and water were allowed ad libitum throughout the experiment period. The backs of the mice were shaved with an electric clipper two days before each treatment and only those mice showing no hair regrowth were used (i.e., the mice in the resting phase of the hair growth cycle were selected). During treatment, the mice were held with their tails and put on top of the cage so that they grasped the cage and rested there. The solutions were applied to an area approximately 2 cm×2 cm on the shaved back of the mice by using a “Pipetman” to apply the solution. If auranofin ointment or ointment base was applied, the amount was standardized by using a microspatula which was crimped at one end, the ointment was then put into the ridge and the excess removed by means of another microspatula and applied sparingly twice a day. After a fixed time, the mice were killed routinely by cervical dislocation between 9 a.m. and 11 a.m. to avoid variations due to circadian rhythms, and an area (1 cm×1 cm) was excised from the centre of the treated area by scalpel and scissors. The rest of the tissues were disposed by combustion. The tissues were then fixed, embedded, sectioned and stained.
Epidermal thickness was determined by image analysis. This image analysis system was a minicomputer (Tracor Northern TN8500) attached to a light microscope (Zeiss Axioplan) and a camcorder (Sony DXC-3000P). Sections were taken from each tissue block and 20 measurements were taken at fixed intervals from each section. The average value for the 20 measurements was obtained and entered as one value for each mouse. The mean and SEM for the six mice in each treatment group were calculated.
(§2) The percent inhibition of drug on TPA-induced skin responses (i.e., epidermal hyperplasia, inflammatory cell infiltration and skin-fold thickness) was calculated by using the following formula: [formula]
(§3) This provides estimates of (a) the potency, (b) the efficacy or maximum effect (Emax) and the slope of the log concentration-response curve by using Hill coefficient (γ). The Hill Equation may be expressed as follows: [formula] where IC50 is the drug concentration producing 50% of the maximal response and Emax refers to the maximal effect produced by the drug and is also termed efficacy. Efficacy is the measurement of the intrinsic ability of a drug to initiate a response once it occupies receptor sites. […] The Hill coefficient (γ) measures the slope of the dose-effect curve which can be markedly influenced by the shape of the curve that describes the binding of the drug to the receptor. For many drugs, y lies between 0.6 and 1.5. […] On the other hand, when γ is less than 1, with a shallow hyperbolic concentration effect relationship, the activity occurs over a wide range of drug levels.
(§4) In the present study, concentration-response curves were obtained for a series of corticosteroids. In these experiments, curve fitting was accomplished using a computer programme called “The Scientist” (MicroMath Scientific Software, Salt Lake City, Utah, USA.) in which the parameters, Emax, IC50 and Hill coefficient (γ) for each steroids were estimated by using non-linear regression and least square fits.
Mice were divided into treatment groups. TPA and corticosteroids were premixed to the concentrations required and applied to the backs of mice immediately. For those steroids not very soluble in acetone (i.e., betamethasone, dexamethasone, hydrocortisone and hydrocortisone acetate), the drugs were dissolved in 100 μL dimethylformamide before further dilution with acetone. The efficacy of corticosteroids in inhibiting epidermal hyperplasia, inflammatory cell infiltration and skin-fold thickness was assessed as described previously. Concentration-response curves were determined after computer-fitting of data.

Test [2] has as its system TPA-induced inflammatory cell infiltration into the dermis. Briefly: Inhibition of TPA-induced inflammatory cell infiltration into the dermis of mice. The settings on record: for Relative potency: hydrocortisone acetate = 1.0; for Potency for inhibition of TPA-induced inflammatory cell infiltration (in words): ranking in text; for Emax: read-out: Emax (% inhibition). The test is classed as in vivo, BALB/c mice. As to the method: as §1
Infiltration of inflammatory cells was determined by the same image analysis system using the section taken from the block of mouse skin embedded in paraffin wax or Spurr's resin and stained with haematoxylin and eosin or toluidine blue respectively. For each section, 10 fields, unless otherwise stated, were chosen randomly and the cell density per mm^2 of field determined. The average value for the 10 fields was obtained and entered as one value for each mouse. The mean and SEM for the six mice in each treatment group were calculated.
The measurement of the inflammatory cell infiltration included the background values which included other materials in the dermis stained in the same way.
as §2, §3, §4
Mice were divided into treatment groups. TPA and corticosteroids were premixed to the concentrations required and applied to the backs of mice immediately.

The mark [3] stands for this setting: Hill equation fit, means ± SD, steroid premixed with TPA, topical.
The mark [4] stands for this setting: Hill equation fit, means ± SD, steroid premixed with TPA, topical, read-out: IC50 (M × 10^−4).
Setting [5] is: from Hill equation, concentration that produced 50% of Emax, read-out: IC50 for inhibition of epidermal thickening (M × 10^−4).
Setting [6] is: read from concentration-response curve, concentration that inhibited 50% of the TPA effect, read-out: IC50 for inhibition of epidermal thickening (M × 10^−4).
Where [7] appears, read: from Hill equation, concentration that produced 50% of Emax, read-out: IC50 for inhibition of inflammatory cell infiltration in the dermis (M × 10^−4).
The mark [8] stands for this setting: read from concentration-response curve, concentration that inhibited 50% of the TPA effect, read-out: IC50 for inhibition of inflammatory cell infiltration in the dermis (M × 10^−4).
The mark [9] stands for this setting: Mus musculus, topical, read-out: IC50 (M × 10^−4), Hill equation fit, means ± SD, steroid premixed with TPA, topical.
Setting [10] is: IC50 without auranofin divided by IC50 with auranofin (0.2%).
Where [11] appears, read: with auranofin (0.2%), from computer fitted graph, means ± SD, read-out: Apparent IC50 (M × 10^−4) with auranofin.
Setting [12] is: without auranofin, from computer fitted graph, means ± SD, read-out: Apparent IC50 (M × 10^−4) without auranofin.
The mark [13] stands for this setting: Mus musculus, from Hill equation, concentration that produced 50% of Emax, read-out: IC50 for inhibition of epidermal thickening (M × 10^−4).
The mark [14] stands for this setting: Mus musculus, read from concentration-response curve, concentration that inhibited 50% of the TPA effect, read-out: IC50 for inhibition of epidermal thickening (M × 10^−4).
Setting [15] is: Mus musculus, topical, Hill equation fit, means ± SD, steroid premixed with TPA, topical, read-out: IC50 (M × 10^−4).
The mark [16] stands for this setting: Mus musculus, Hill equation fit, means ± SD, steroid premixed with TPA, topical.
Where [17] appears, read: Mus musculus, from Hill equation, concentration that produced 50% of Emax, read-out: IC50 for inhibition of inflammatory cell infiltration in the dermis (M × 10^−4).
The mark [18] stands for this setting: Mus musculus, read from concentration-response curve, concentration that inhibited 50% of the TPA effect, read-out: IC50 for inhibition of inflammatory cell infiltration in the dermis (M × 10^−4).

The source of these data is patent US20050267204A1, “Synergistic gold-containing compositions” (MEDICAL INNOVATIONS LIMITED, priority 1996, published 2005).

A word on the Emax: it is the size of the effect at its maximum, as opposed to the concentration needed.

Each structure is given as a SMILES string. Like-named read-outs stand apart in the source and are kept apart here.

Take `C[C@@H]1C[C@H]2[C@@H]3C[C@H](F)C4=CC(=O)C=C[C@]4(C)[C@H]3[C@@H](O)C[C@]2(C)[C@H]1C(=O)COC(=O)C(C)(C)C` [Fluocortolone 21-pivalate]: the “Emax (% inhibition)” value in test [1] (setting [3]) amounted to 85.18 ± 9.51 % inhibition; in test [2] (setting [3]) it was 97.91 ± 12.16 % inhibition. Further, the IC50 came to 40 ± 15 µM in test [1] (setting [4]); 40 µM in test [1] (setting [5]); 60 µM in test [1] (setting [6]); 110 ± 40 µM in test [2] (setting [4]); 110 µM in test [2] (setting [7]); 110 µM in test [2] (setting [8]). Moreover, the Relative potency in test [1] (from Hill-equation IC50) is 91.68; in test [1] (from IC50 read from curve), 116.67; in test [2] (from Hill-equation IC50), 70.30; in test [2] (from IC50 read from curve) it was 100.0. In addition, the “Potency for inhibition of TPA-induced epidermal hyperplasia (in words)” value in test [1] was “medium to strong potencies”. The “Potency for inhibition of TPA-induced inflammatory cell infiltration (in words)” value in test [2] is recorded as “medium to strong potencies”.
As to `CCC(=O)OCC(=O)[C@@]1(OC(=O)CC)[C@H](C)C[C@H]2[C@H]3[C@H]([C@@H](O)C[C@@]21C)[C@@]1(C)C=CC(=O)C=C1C[C@H]3Cl` [Alclometasone dipropionate], the IC50 was 89 µM in test [1] (Mus musculus, read-out: IC50 for inhibition of epidermal thickening (M × 10^−4), from Hill equation, concentration that produced 50% of Emax); 100 µM in test [1] (Mus musculus, read-out: IC50 for inhibition of epidermal thickening (M × 10^−4), read from concentration-response curve, concentration that inhibited 50% of the TPA effect); 89 ± 30 µM in test [1] (setting [9]); 32 µM in test [2] (Mus musculus, read-out: IC50 for inhibition of inflammatory cell infiltration in the dermis (M × 10^−4), from Hill equation, concentration that produced 50% of Emax); 60 µM in test [2] (Mus musculus, read-out: IC50 for inhibition of inflammatory cell infiltration in the dermis (M × 10^−4), read from concentration-response curve, concentration that inhibited 50% of the TPA effect); 32 ± 9 µM in test [2] (setting [9]). The Emax in test [1] (Mus musculus, topical) is 96.6 ± 7.9%; in test [2] (Mus musculus, topical), 82.1 ± 5.65%. Moreover, the Relative potency in test [1] (from Hill-equation IC50) is on record as 41.20; in test [1] (from IC50 read from curve), 70.0; in test [2] (from Hill-equation IC50), 241.66; in test [2] (from IC50 read from curve), 183.33. In test [1], the “Potency for inhibition of TPA-induced epidermal hyperplasia (in words)” value was “medium to strong potencies”. For the same compound, the “Potency for inhibition of TPA-induced inflammatory cell infiltration (in words)” value in test [2] is on record as “medium to strong potencies”.
Turning to `C[C@@H]1C[C@H]2[C@@H]3CCC4=CC(=O)C=C[C@]4(C)[C@@]3(Cl)[C@@H](O)C[C@]2(C)[C@@]1(OC(=O)c1ccco1)C(=O)CCl` [Mometasone furoate, mometasone furoate], the “Emax (% inhibition)” value in test [1] (setting [3]) is 83.31 ± 3.04 % inhibition; in test [2] (setting [3]), 89.98 ± 4.88^ % inhibition. The IC50 in test [1] (setting [4]) worked out at 23 ± 4 µM; in test [1] (setting [5]) it was 23 µM; in test [1] (setting [6]), 40 µM; in test [1] (setting [11]) it was 31 ± 5 µM; in test [1] (setting [12]), 40 ± 4 µM; in test [2] (setting [4]) it was 20 ± 5 µM. Besides, the IC50 in test [2] (setting [7]) is 20 µM; in test [2] (setting [8]) it was 30 µM; in test [2] (setting [11]), 0.8 ± 0.1 µM; in test [2] (setting [12]), 30 ± 5 µM. Also, the Synergistic factor in test [1] (setting [10]) is reported as 1.29; in test [2] (setting [10]) it was 37.50. The “Synergism with auranofin, epidermal hyperplasia (in words)” value in test [1] (auranofin (0.2%) co-administered) is listed as “no synergism or even additive effect”. Further, the Relative potency in test [1] (from Hill-equation IC50) is 159.43; in test [1] (from IC50 read from curve), 175.0; in test [2] (from Hill-equation IC50), 386.65; in test [2] (from IC50 read from curve) it was 366.67. The “Potency for inhibition of TPA-induced epidermal hyperplasia (in words)” value in test [1] is on record as “strong to very strong potencies”. Moreover, the “Synergism with auranofin, inflammatory cell infiltration (in words)” value in test [2] (auranofin (0.2%), FIG. 2) is “massive synergism”. Also, in test [2] (equal to 5×10^−4 M with auranofin (0.2%), FIG. 2), the “Concentration that, in the absence of auranofin, produced an equal effect to the combination” value turned out to be 1 mM. In test [2] (in presence of auranofin (0.2%), Table 10), the “Increase in apparent IC50” value is on record as “about 3,800%”. In addition, in test [2], the “Potency for inhibition of TPA-induced inflammatory cell infiltration (in words)” value is “strong to very strong anti-inflammatory effect”.
Consider `CC1(C)O[C@@H]2C[C@H]3[C@@H]4CCC5=CC(=O)CC[C@]5(C)[C@@]4(F)[C@@H](O)C[C@]3(C)[C@]2(C(=O)CCl)O1` [Halcinonide], for which the IC50 in test [1] (setting [13]) turned out to be 97 µM; in test [1] (setting [14]), 110 µM; in test [1] (setting [15]), 97 ± 13 µM; in test [2] (setting [17]) it was 31 µM; in test [2] (setting [18]) it was 60 µM; in test [2] (setting [15]), 31 ± 5 µM. The maximum response (Emax) turned out to be 92.5 ± 2.98% in test [1] (setting [16]) and 90.3 ± 6.29% in test [2] (setting [16]). For the same compound, the Relative potency in test [1] (from Hill-equation IC50) is on record as 37.80; in test [1] (from IC50 read from curve) it was 63.64; in test [2] (from Hill-equation IC50), 249.45; in test [2] (from IC50 read from curve), 183.33. Also, the “Potency for inhibition of TPA-induced epidermal hyperplasia (in words)” value in test [1] is on record as “medium to strong potencies”. Besides, in test [2], the “Potency for inhibition of TPA-induced inflammatory cell infiltration (in words)” value was “medium to strong potencies”.
As for `C[C@H]1C[C@H]2[C@@H]3CCC4=CC(=O)C=C[C@]4(C)[C@@]3(F)[C@@H](O)C[C@]2(C)[C@@]1(O)C(=O)CO` [Betamethasone, betamethasone], the IC50 in test [1] (setting [13]) is 2720 µM; in test [1] (setting [14]), 5000 µM; in test [1] (setting [15]), 1380 µM; in test [2] (setting [17]), 1310 µM; in test [2] (setting [18]), 2100 µM; in test [2] (setting [15]), 1310 ± 165 µM. In addition, the maximal effect (Emax) in test [1] (setting [16]) was determined as 94.2 ± 7.33%; in test [2] (setting [16]), 74.5 ± 3.29%. For the same compound, the Relative potency in test [1] (from Hill-equation IC50) was found to be 1.35; in test [1] (from IC50 read from curve), 1.40; in test [2] (from Hill-equation IC50), 5.89; in test [2] (from IC50 read from curve), 5.23.
